The nature of series [1]: Hepatotoxicity in mouse AML12 cells assessed as reduction in cell viability at 20 to 100 uM incubated for 24 hrs by MTT assay. Type of series: toxicity, cell-based. The note with it: aml12, 24 h, dose 20-100 µM. For orientation: Tetrazolium assays rely on reduction of a dye to a coloured formazan, in cell work by metabolically active cells.
The target in series [2] is T1, Acetylcholinesterase (Electrophorus electricus, UniProt O42275). Description: Inhibition of electric eel AChE.
Series [3] is described as follows: Hepatotoxicity in human HepG2 cells assessed as reduction in cell viability at 20 to 100 uM incubated for 24 hrs by MTT assay. In kind it is toxicity, cell-based. The note with it: hepg2, 24 h, dose 20-100 µM.
Series [4] in a line: Acute toxicity in C57BL mouse assessed as liver damage upto 2000 mg/kg, po administered as single dose and measured after 2 weeks by hematoxylin and eosin staining based analysis. In kind it is organism-based. To be noted: in vivo, 336 h.
The nature of series [5]: Acute toxicity in C57BL mouse assessed as lung damage upto 2000 mg/kg, po administered as single dose and measured after 2 weeks by hematoxylin and eosin staining based analysis. To be noted: in vivo, 336 h. In kind it is organism-based.
Series [6] in a line: Toxicity in C57BL mouse assessed as change in body weight at 10 to 30 mg/kg, po measured after 7 days. Type of series: organism-based. To be noted: in vivo, 168 h, dose 10-30 mg/kg, time 7 day.
The target in series [7] is T1, Acetylcholinesterase. Description: Inhibition of electric eel AChE using acetylthiocholine iodide as substrate pre-incubated for 30 mins followed by substrate addition and measured after 5 mins by DTNB reagent based Ellman's method. In general terms: Ellman's reagent forms a yellow product with free thiols.
Series [8] in a line: Acute toxicity in C57BL mouse assessed as heart damage upto 2000 mg/kg, po administered as single dose and measured after 2 weeks by hematoxylin and eosin staining based analysis. Type of series: organism-based. To be noted: in vivo, 336 h.
Series [9] deals with Mus musculus. Description: Antialzheimer activity in scopolamine-induced C57BL mouse model assessed as decrease in escape latency at 10 to 30 mg/kg, po administered for 7 days followed by scopolamine administration and measured after 4 days by Morris water maze test. In kind it is functional, organism-based. To be noted: dose 10-30 mg/kg, time 11.0 day.
Series [10] concerns Mus musculus. Description: Antialzheimer activity in scopolamine-induced C57BL mouse model assessed as increase in crossing frequency in platform area at 30 mg/kg, po administered for 7 days followed by scopolamine administration and measured after 5 days by Morris water maze test. Type of series: functional, organism-based. To be noted: time 12.0 day.
Series [11] has as its system PC-12. The series is described as follows: Neuroprotective activity against H2O2-induced cell death in rat PC12 cells assessed as increase in survival rate pre-incubated for 3 hrs followed by H2O2 addition and measured after 24 hrs by MTT assay. In kind it is functional, cell-based. The note with it: dose 1-20 µM, time 27.0 hrs.
Series [12] has as its system BV-2. Description: Anti-neuroinflammatory activity against LPS-induced mouse BV-2 cells assessed as inhibition of IL-1beta production pre-incubated for 1 hr followed by LPS addition and measured after 24 hrs by ELISA. In kind it is functional, cell-based.
Series [13] can be described thus: Acute toxicity in C57BL mouse assessed as spleen damage upto 2000 mg/kg, po administered as single dose and measured after 2 weeks by hematoxylin and eosin staining based analysis. The note with it: in vivo, 336 h. Type of series: organism-based.
Series [14] concerns PC-12. Description: Antioxidant activity in H2O2-induced rat PC12 cells assessed as reduction in intracellular ROS level incubated for 1 hr followed by H2O2 addition and measured after 5 hrs by DCFH-DA staining based laser confocal microscopy. To be noted: dose 10-20 µM, time 6.0 hrs. In kind it is functional, cell-based.
Series [15] deals with Mus musculus. Description: Antialzheimer activity in scopolamine-induced C57BL mouse model assessed as prevention of irregular cellular arrangements in cortical cells of hippocampal region at 10 to 30 mg/kg, po administered for 7 days followed by scopolamine administration by hematoxylin and eosin staining based analysis. To be noted: dose 10-30 mg/kg. Type of series: functional, organism-based.

Series [16] relates to PC-12. The series is described as follows: Cytotoxicity against rat PC12 cells assessed as reduction in cell viability at 20 to 50 uM incubated for 24 hrs by MTT assay. In kind it is toxicity, cell-based. The note with it: pc-12, 24 h, dose 20-50 µM.
Series [17] in a line: Metal chelating activity assessed as Cu2+-compound complex formation by measuring drop in intensity of absorption curve at 50 uM incubated for 1 hr in presence of CuCl2 by UV-Visible spectrophotometry.
Series [18] deals with Mus musculus. Description: Antialzheimer activity in scopolamine-induced C57BL mouse model assessed as increase in residence time in platform area at 30 mg/kg, po administered for 7 days followed by scopolamine administration and measured after 5 days by Morris water maze test. Type of series: functional, organism-based. To be noted: time 12.0 day.
A short description of series [19]: Acute toxicity in C57BL mouse assessed as kidney damage upto 2000 mg/kg, po administered as single dose and measured after 2 weeks by hematoxylin and eosin staining based analysis. The note with it: in vivo, 336 h. Type of series: organism-based.
Series [20] has as its system BV-2. The series is described as follows: Anti-neuroinflammatory activity against LPS-induced mouse BV-2 cells assessed as decrease in COX-2 protein expression pre-incubated for 1 hr followed by LPS addition and measured after 24 hrs by Western blotting analysis. Type of series: functional, cell-based. To be noted: dose 1-10 µM. For orientation: Immunoblotting shows a protein as a band on a membrane.

Series [21] in a line: Metal chelating activity assessed as Cu2+-compound complex formation by measuring red shift in maximum absorption wavelength at 50 uM incubated for 1 hr in presence of CuCl2 by UV-Visible spectrophotometry.
Series [22] concerns the target Acetylcholinesterase (Electrophorus electricus) (UniProt O42275). Description: Mixed type inhibition of electric eel AChE using acetylthiocholine iodide as substrate pre-incubated for 30 mins followed by substrate addition and measured after 5 mins by DTNB reagent based Ellman's method. The note with it: dose 0-0.4 µM, time 35.0 min.
For series [23], the system named is BV-2. The series is described as follows: Cytotoxicity against mouse BV-2 cells assessed as reduction in cell viability at 20 to 50 uM incubated for 24 hrs by MTT assay. To be noted: bv-2, 24 h, dose 20-50 µM. In kind it is toxicity, cell-based.
The next series addresses Cholinesterase (Equus caballus, UniProt P81908). Description: Inhibition of equine serum BuChE using S-butyrylthiocholine iodide as substrate pre-incubated for 30 mins followed by substrate addition and measured after 5 mins by DTNB reagent based Ellman's method.
Series [24] deals with BV-2. The series is described as follows: Anti-neuroinflammatory activity against LPS-induced mouse BV-2 cells assessed as inhibition of TNF-alpha production pre-incubated for 1 hr followed by LPS addition and measured after 24 hrs by ELISA. In kind it is functional, cell-based.
Series [25] relates to BV-2. Description: Anti-neuroinflammatory activity against LPS-induced mouse BV-2 cells assessed as decrease in iNOS protein expression pre-incubated for 1 hr followed by LPS addition and measured after 24 hrs by Western blotting analysis. To be noted: dose 1-10 µM, time 25.0 hrs. In kind it is functional, cell-based.
The test system of series [26] is Mus musculus. Description: Antialzheimer activity in scopolamine-induced C57BL mouse model assessed as prevention of blurred borders in cortical cells of hippocampal region at 10 to 30 mg/kg, po administered for 7 days followed by scopolamine administration by hematoxylin and eosin staining based analysis. Type of series: functional, organism-based. To be noted: dose 10-30 mg/kg.

In series [27] the test system is Mus musculus. Description: Antialzheimer activity in scopolamine-induced C57BL mouse model assessed as effect on swimming speed at 10 to 30 mg/kg, po administered for 7 days followed by scopolamine administration and measured after 4 days by Morris water maze test. Type of series: functional, organism-based. The note with it: dose 10-30 mg/kg, time 11.0 day.
Series [28] is described as follows: Metal chelating activity assessed as Zn2+-compound complex formation by measuring blue shift in maximum absorption wavelength at 50 uM incubated for 1 hr in presence of ZnCl2 by UV-Visible spectrophotometry.
The target in series [29] is T1, Acetylcholinesterase. The series is described as follows: Inhibition of electric eel AChE assessed as dissociation constant using acetylthiocholine iodide as substrate pre-incubated for 30 mins followed by substrate addition and measured after 5 mins by DTNB reagent based Ellman's method.
Series [30] concerns BV-2. Description: Anti-neuroinflammatory activity against LPS-induced mouse BV-2 cells assessed as inhibition of NO production pre-incubated for 1 hr followed by LPS addition and measured after 24 hrs by Griess reagent based assay. In kind it is functional, cell-based.
The nature of another series: in vitro. To be noted: PAMPA, pH 7.4.

Calls of active or inactive are those of the source. No cut-off for these calls is given here.

T1 sequence (O42275 whole entry): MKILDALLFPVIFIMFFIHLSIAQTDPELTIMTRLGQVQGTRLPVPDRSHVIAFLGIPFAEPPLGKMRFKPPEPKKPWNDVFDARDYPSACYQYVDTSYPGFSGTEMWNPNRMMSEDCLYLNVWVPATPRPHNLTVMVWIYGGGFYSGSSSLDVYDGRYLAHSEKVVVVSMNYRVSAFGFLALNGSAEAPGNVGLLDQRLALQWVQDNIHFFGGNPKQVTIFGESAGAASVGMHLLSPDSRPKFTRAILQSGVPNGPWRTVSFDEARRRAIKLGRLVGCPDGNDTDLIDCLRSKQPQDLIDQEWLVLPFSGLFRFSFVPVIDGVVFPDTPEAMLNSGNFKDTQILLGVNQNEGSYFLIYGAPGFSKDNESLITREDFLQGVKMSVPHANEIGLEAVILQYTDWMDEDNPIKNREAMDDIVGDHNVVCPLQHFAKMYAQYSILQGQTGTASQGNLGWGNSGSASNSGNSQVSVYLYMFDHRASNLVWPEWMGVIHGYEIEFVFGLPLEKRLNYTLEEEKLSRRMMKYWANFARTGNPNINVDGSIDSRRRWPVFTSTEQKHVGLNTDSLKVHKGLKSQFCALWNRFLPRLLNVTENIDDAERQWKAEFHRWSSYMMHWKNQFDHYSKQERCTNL
Cholinesterase, sequence (P81908 whole entry): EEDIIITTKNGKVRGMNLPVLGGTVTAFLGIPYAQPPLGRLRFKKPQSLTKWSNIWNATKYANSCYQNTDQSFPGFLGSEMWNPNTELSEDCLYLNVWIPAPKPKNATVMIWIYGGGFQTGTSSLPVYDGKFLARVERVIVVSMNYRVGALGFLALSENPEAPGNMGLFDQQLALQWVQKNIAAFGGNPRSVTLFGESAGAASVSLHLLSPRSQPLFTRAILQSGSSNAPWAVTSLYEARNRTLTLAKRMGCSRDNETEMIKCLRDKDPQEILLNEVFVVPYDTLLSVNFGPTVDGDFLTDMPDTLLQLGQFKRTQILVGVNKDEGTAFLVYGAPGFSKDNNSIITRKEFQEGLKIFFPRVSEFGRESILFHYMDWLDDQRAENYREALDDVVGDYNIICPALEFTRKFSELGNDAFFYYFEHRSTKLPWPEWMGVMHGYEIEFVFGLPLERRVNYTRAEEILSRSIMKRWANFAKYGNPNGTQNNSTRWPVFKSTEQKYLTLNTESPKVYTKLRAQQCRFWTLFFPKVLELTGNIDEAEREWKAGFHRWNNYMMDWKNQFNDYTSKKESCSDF
Acetylcholinesterase (Electrophorus electricus), sequence (O42275 24-633 limits assumed): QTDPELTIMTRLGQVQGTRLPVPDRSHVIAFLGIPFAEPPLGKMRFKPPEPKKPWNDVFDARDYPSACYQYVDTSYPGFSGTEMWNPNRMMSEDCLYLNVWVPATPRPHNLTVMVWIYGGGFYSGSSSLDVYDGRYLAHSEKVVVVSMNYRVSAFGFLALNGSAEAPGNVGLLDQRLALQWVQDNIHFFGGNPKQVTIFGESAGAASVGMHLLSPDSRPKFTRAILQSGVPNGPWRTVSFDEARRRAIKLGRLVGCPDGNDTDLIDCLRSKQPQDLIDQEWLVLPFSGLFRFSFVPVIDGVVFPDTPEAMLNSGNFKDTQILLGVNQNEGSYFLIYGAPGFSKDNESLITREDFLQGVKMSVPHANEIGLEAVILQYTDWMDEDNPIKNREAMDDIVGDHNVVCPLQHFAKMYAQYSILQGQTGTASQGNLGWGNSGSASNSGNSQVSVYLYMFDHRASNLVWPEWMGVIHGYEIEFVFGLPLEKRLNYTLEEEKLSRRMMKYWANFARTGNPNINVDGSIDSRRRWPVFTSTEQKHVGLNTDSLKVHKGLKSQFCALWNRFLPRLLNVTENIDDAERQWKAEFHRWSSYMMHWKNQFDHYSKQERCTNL
Description for in vitro: Permeability of the compound at 30 to 50 uM at pH 7.4 by PAMPA-BBB assay

For orientation: IC50 means the midpoint of a concentration-inhibition curve. On to `O=c1c2ccccc2nc2n1CCC2` [DEOXYVASICINONE], for which the Activity entry in series [1] and in series [3] was “Non-Toxic” each time. The compound further gave an IC50 at Acetylcholinesterase [2] of 82.5 µM.
One may read the Ki as a measure of affinity in units of concentration, obtained from inhibition or displacement. For orientation: Papp means a coefficient for how fast a substance crosses the barrier. A lower Papp goes with poor permeation. As for `O=C(CNS(=O)(=O)c1ccccc1C(F)(F)F)Nc1ccc2c(=O)n3c(nc2c1)CCC3`, the Activity entry is “Non-Toxic” in series [4]; “Non-Toxic” in series [5]; “Non-Toxic” in series [6]; “Non-Toxic” in series [8]; “Dose-Dependent Effect” in the series on PC-12 [11]; “Dose-Dependent Effect” in the series with BV-2 [12] (time 25.0 hrs). Besides, the Activity entry was “Non-Toxic” in [13]; “Dose-Dependent Effect” with PC-12 [14]; “Non-Toxic” with PC-12 [16]; “Non-Toxic” in [1]; “Non-Toxic” in series [19]; “Dose-Dependent Effect” with BV-2 [20]. Further, the Activity entry is “Non-Toxic” in the series on BV-2 [23]; “Dose-Dependent Effect” with BV-2 [24] (time 25.0 hrs); “Dose-Dependent Effect” in the series on BV-2 [25]; “Non-Toxic” in [3]; “Dose-Dependent Effect” in the series with BV-2 [30] (time 25.0 hrs). For the same compound, the IC50 on Acetylcholinesterase [7] is 0.24 µM; in the series on BV-2 [12], 1.69 µM; against Cholinesterase, above 50 µM; in the series with BV-2 [24] it was 8.62 µM; in the series on BV-2 [30] it was 3.34 µM. The result (in the series with Mus musculus [9]; with Mus musculus [10]; in the series on Mus musculus [15]; in series [17]; in the series on Mus musculus [18]; in series [21]) was Active. The outcome (in the series on Mus musculus [26]; in series [28]) was Active. The inhibition result in [22] was “Dose-Dependent Effect”. In the series with Mus musculus [27], the result was inactive. For the same compound, the Ki at Acetylcholinesterase [29] turned out to be 0.24 µM. The compound further returned a Papp at 50 µM in the series “in vitro” of 10.5 ×10⁻⁶ cm/s.

Source of the values: ChEMBL document CHEMBL5528012, “Discovery of novel deoxyvasicinone derivatives with benzenesulfonamide substituents as multifunctional agents against Alzheimer's disease” (Eur J Med Chem, 2024).
